Measurements: PubChem BioAssay AID330 (DTP/NCI, 2004)
Where “and” joins values, the source holds several entries; their conditions need not be identical. Equal values may be shown once. Toxic doses and inconclusive results are not listed.

Test system: P388 leukemia ip, CD2F1 mice, survival T/C
Assay: NCI In Vivo Anticancer Drug Screen. Data for tumor model P388 Leukemia (intraperitoneal) in CD2F1 (CDF1) mice
Settings: endpoint: median survival time, higher = longer survival
Summary of the method: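 Mice carrying the transplanted tumor received test compound or vehicle. Survival was recorded in each group, and the value is the treated-group measurement divided by that of the vehicle-treated control group.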

[1] = dose: 12.5 mg/kg/injection, schedule: Q01DX009 (ip), vehicle: saline
[2] = dose: 25.0 mg/kg/injection, schedule: Q01DX009 (ip), vehicle: saline
[3] = dose: 50.0 mg/kg/injection, schedule: Q01DX009 (ip), vehicle: saline
[4] = dose: 100.0 mg/kg/injection, schedule: Q04DX003 (ip), vehicle: saline with Tween-80
[5] = dose: 200.0 mg/kg/injection, schedule: Q04DX003 (ip), vehicle: saline with Tween-80
[6] = dose: 50.0 mg/kg/injection, schedule: Q01DX009 (ip), vehicle: Klucel (hydroxypropylcellulose) (HPC)
[7] = dose: 100.0 mg/kg/injection, schedule: Q01DX009 (ip), vehicle: Klucel (hydroxypropylcellulose) (HPC)
[8] = dose: 200.0 mg/kg/injection, schedule: Q01DX009 (ip), vehicle: Klucel (hydroxypropylcellulose) (HPC)
[9] = dose: 60.0 mg/kg/injection, schedule: Q01DX005 (ip), vehicle: saline with Tween-80
[10] = dose: 120.0 mg/kg/injection, schedule: Q01DX005 (ip), vehicle: saline with Tween-80
[11] = dose: 240.0 mg/kg/injection, schedule: Q01DX005 (ip), vehicle: saline with Tween-80

For CCN(CC)C(C)C(=O)Nc1c(C)cccc1Cl (stereo unspecified), the T/C [1] was 100 % of control, the T/C [2] was 90 % of control and the T/C [3] was 100 % of control.

CCOS(=O)(=O)c1ccc([N+](=O)[O-])cc1 was tested, and the T/C [1] was 95 % of control, the T/C [2] was 100 % of control and the T/C [3] was 98 % of control. For the same compound, the T/C (dose: 100.0 mg/kg/injection, schedule: Q01DX009 (ip), vehicle: saline) was 100 % of control and 90 % of control.

COC(=O)Cn1/c(=N\N=C\c2ccccc2)sc2ccccc21 was tested, and the T/C (dose: 100.0 mg/kg/injection, schedule: Q01DX001 (ip), vehicle: saline with Tween-80) was 90 % of control, the T/C (dose: 200.0 mg/kg/injection, schedule: Q01DX001 (ip), vehicle: saline with Tween-80) was 87 % of control and the T/C (dose: 400.0 mg/kg/injection, schedule: Q01DX001 (ip), vehicle: saline with Tween-80) was 88 % of control.

Cc1ccc(Cl)cc1N=Cc1ccccc1O was tested, and the T/C [4] was 100 % of control, the T/C [5] was 95 % of control and the T/C (dose: 400.0 mg/kg/injection, schedule: Q04DX003 (ip), vehicle: saline with Tween-80) was 100 % of control.

For COc1ccc(C(=O)Cc2nc3nnc(N)n3[nH]c2=O)cc1, the T/C (dose: 60.0 mg/kg/injection, schedule: Q01DX005 (ip), vehicle: saline) was 99 % of control, the T/C (dose: 120.0 mg/kg/injection, schedule: Q01DX005 (ip), vehicle: saline) was 104 % of control and the T/C (dose: 240.0 mg/kg/injection, schedule: Q01DX005 (ip), vehicle: saline) was 103 % of control.

With N=c1c2c(C(N)=O)cn(C3OC(CO)C(O)C3O)c2ncn1N (stereo unspecified) the T/C (dose: 50.0 mg/kg/injection, schedule: Q01DX005 (ip), vehicle: water) was 166 % of control.

In the case of COC(=O)C1CCC=CC1Sc1ccccc1 (stereo unspecified), the T/C [6] is reported as 105 % of control, the T/C [7] is reported as 106 % of control and the T/C [8] is reported as 112 % of control.

For C#CCSc1n[nH]c(=O)n1C1CCCCC1, the T/C [9] was 99 % of control, the T/C [10] was 106 % of control and the T/C [11] was 106 % of control.

In the case of C[Si](C)(C)CNC(=S)S, the T/C [9] is reported as 113 % of control, the T/C [10] is reported as 115 % of control and the T/C [11] is reported as 112 % of control.

In the case of COc1ccc2c3c(ccc2c1)CC1CCCN1C3 (stereo unspecified), the T/C (dose: 50.0 mg/kg/injection, schedule: Q01DX005 (ip), vehicle: other) is reported as 116 % of control and the T/C (dose: 100.0 mg/kg/injection, schedule: Q01DX005 (ip), vehicle: other) is reported as 104 % of control.

In the case of CC(C)Sc1ncnc2nc[nH]c12, the T/C (dose: 50.0 mg/kg/injection, schedule: Q01DX009 (ip), vehicle: saline with Tween-80) is reported as 100 % of control, the T/C (dose: 100.0 mg/kg/injection, schedule: Q01DX009 (ip), vehicle: saline with Tween-80) is reported as 104 % of control and the T/C [4] is reported as 95 % of control. The T/C (dose: 200.0 mg/kg/injection, schedule: Q01DX009 (ip), vehicle: saline with Tween-80) was 118 % of control and the T/C [5] was 86 % of control.

CC(=O)Oc1ccc2ccc(=O)oc2c1OC(C)=O was tested, and the T/C (dose: 25.0 mg/kg/injection, schedule: Q01DX009 (ip), vehicle: Klucel (hydroxypropylcellulose) (HPC)) was 102 % of control, the T/C [6] was 101 % of control and the T/C [7] was 109 % of control. For the same compound, the T/C [8] was 118 % of control.

In the case of COc1c2occc2c(CCl)c2ccc(=O)oc12, the T/C (dose: 15.0 mg/kg/injection, schedule: Q01DX005 (ip), vehicle: Klucel (hydroxypropylcellulose) (HPC)) is reported as 115 % of control, the T/C (dose: 30.0 mg/kg/injection, schedule: Q01DX005 (ip), vehicle: Klucel (hydroxypropylcellulose) (HPC)) is reported as 111 % of control and the T/C (dose: 60.0 mg/kg/injection, schedule: Q01DX005 (ip), vehicle: Klucel (hydroxypropylcellulose) (HPC)) is reported as 111 % of control and 116 % of control.

CN1CC2(CO)C(c3ccccc3)OC(c3ccccc3)C(CO)(C1)C2O (stereo unspecified) was tested, and the T/C [9] was 104 % of control and 100 % of control, the T/C [10] was 107 % of control and 100 % of control and the T/C [11] was 96 % of control.

In the case of Cc1cc2nc3c(C(O)C(O)C(O)CO)nn(-c4ccc(F)cc4)c3nc2cc1C (stereo unspecified), the T/C (dose: 50.0 mg/kg/injection, schedule: Q01DX005 (ip), vehicle: Klucel (hydroxypropylcellulose) (HPC)) is reported as 88 % of control, the T/C (dose: 100.0 mg/kg/injection, schedule: Q01DX005 (ip), vehicle: Klucel (hydroxypropylcellulose) (HPC)) is reported as 86 % of control and the T/C (dose: 200.0 mg/kg/injection, schedule: Q01DX005 (ip), vehicle: Klucel (hydroxypropylcellulose) (HPC)) is reported as 93 % of control.
